Values after ≈ are worked out from the molar mass of the structure shown.
Experiments:
Experiment in all cases: ≥ marks a high value that may be exact or a test limit, other limits are often not marked, values filed in µg/mL are converted to µM
[1] = system: Mycobacterium tuberculosis CAS3
[2] = system: Mycobacterium tuberculosis H37Rv
[3] = system: Mycobacterium tuberculosis WXY
[4] = system: Aeromonas salmonicida 97-4
[5] = system: Aeromonas salmonicida 99-1
Candida albicans C627 = system: Candida albicans C627
[6] = system: Escherichia coli CGSC 4908
Escherichia coli DC2 = system: Escherichia coli DC2
Escherichia coli UB1005 = system: Escherichia coli UB1005
[7] = system: Pseudomonas aeruginosa K799
[8] = system: Pseudomonas aeruginosa Z61
[9] = system: Salmonella enterica serovar typhimurium MS7953s
[10] = system: Salmonella enterica subsp. enterica serovar Typhimurium ATCC 14028s
[11] = system: Staphylococcus aureus C623
[12] = system: Staphylococcus epidermidis C621
Acinetobacter baumannii = system: Acinetobacter baumannii
Enterobacter cloacae = system: Enterobacter cloacae
[13] = system: Escherichia coli ATCC 25922
[14] = system: Escherichia coli ATCC 8739
[15] = system: Escherichia coli KpC+001812446
[16] = system: Klebsiella pneumoniae ATCC 13883
[17] = system: Klebsiella pneumoniae KpC+001825971
[18] = system: Pseudomonas aeruginosa PA14
[19] = system: Pseudomonas aeruginosa PAO1
[20] = system: Staphylococcus aureus ATCC 12600
[21] = system: Staphylococcus aureus ATCC 25923
Staphylococcus aureus = system: Staphylococcus aureus

`CC(C)C[C@H](NC(=O)[C@H](C)NC(=O)[C@H](C)NC(=O)[C@@H](NC(=O)[C@H](C)N)C(C)C)C(=O)N[C@@H](CC(C)C)C(=O)N[C@@H](CCCN=C(N)N)C(=O)N[C@@H](Cc1c[nH]c2ccccc12)C(=O)N[C@@H](Cc1c[nH]c2ccccc12)C(=O)N[C@@H](CO)C(=O)N[C@@H](CCCN=C(N)N)C(=O)N[C@@H](Cc1c[nH]c2ccccc12)C(=O)N[C@@H](Cc1c[nH]c2ccccc12)C(=O)N[C@@H](C)C(=O)N[C@@H](C)C(=O)O` [AVAALLRWWSRWWAA] showed an MIC [1] of at least 40.7 µM, an MIC [2] of at least 40.7 µM and an MIC [3] of at least 40.7 µM.
With `CC(=O)[C@H](C)NC(=O)[C@H](Cc1ccccc1)NC(=O)[C@H](Cc1cnc[nH]1)NC(=O)[C@H](CCCNC(=N)N)NC(=O)[C@H](CCC(N)=O)NC(=O)[C@H](CO)NC(=O)[C@H](CC(C)C)NC(=O)[C@H](CCCNC(=N)N)NC(=O)[C@H](CCC(=O)O)NC(=O)CNC(=O)[C@H](CCCCN)NC(=O)[C@@H](NC(=O)[C@H](Cc1ccccc1)NC(=O)[C@H](Cc1c[nH]c2ccccc12)NC(=O)[C@H](CCCCN)NC(=O)[C@H](CCCCN)NC(=O)[C@H](Cc1c[nH]c2ccccc12)NC(=O)CN)[C@@H](C)O` [GWKKWFTKGERLSQRHFA] the MIC [4] was at least 56.6 µM, the MIC [5] was 28.3 µM (≈ 63.9 µg/mL) and the MIC (Candida albicans C627) was 28.3 µM (≈ 63.9 µg/mL). The MIC [6] was 28.3 µM (≈ 63.9 µg/mL), the MIC (Escherichia coli DC2) was 28.3 µM (≈ 63.9 µg/mL) and the MIC (Escherichia coli UB1005) was 28.3 µM (≈ 63.9 µg/mL). For the same compound, the MIC [7] was 28.3 µM (≈ 63.9 µg/mL), the MIC [8] was 28.3 µM (≈ 63.9 µg/mL) and the MIC [9] was 14.1 µM (≈ 32 µg/mL). It also gave an MIC [10] of 28.3 µM (≈ 63.9 µg/mL), an MIC [11] of 28.3 µM (≈ 63.9 µg/mL) and an MIC [12] of 28.3 µM (≈ 63.9 µg/mL).
With `CC[C@H](C)[C@H](NC(=O)[C@H](CCCCN)NC(=O)[C@H](CCCCN)NC(=O)CNC(=O)[C@H](CC(C)C)NC(=O)[C@H](CCCN=C(N)N)NC(=O)[C@H](CCCCN)NC(=O)[C@H](CC(C)C)NC(=O)[C@H](CC(C)C)NC(=O)[C@H](CCCCN)NC(=O)[C@H](CCSC)NC(=O)[C@@H]1CCCN1)C(=O)N[C@@H](CCCN=C(N)N)C(=O)N[C@@H](CC(C)C)C(=O)N[C@@H](C)C(=O)N[C@@H](C)C(=O)N[C@@H](C)C(=O)N[C@@H](Cc1ccccc1)C(=O)N[C@@H](CCCCN)C(=O)O` [PMKLLKRLGKKIRLAAAFK] the MIC (Acinetobacter baumannii) was 4 µM (≈ 8.73 µg/mL), the MIC (Enterobacter cloacae) was at least 32 µM and the MIC [13] was 4 µM (≈ 8.73 µg/mL). It also gave an MIC [14] of 14.7 µM (≈ 32 µg/mL), an MIC [15] of 2 µM (≈ 4.37 µg/mL) and an MIC [16] of 8 µM (≈ 17.5 µg/mL). It also gave an MIC [17] of at least 32 µM, an MIC [18] of 4 µM (≈ 8.73 µg/mL) and an MIC [19] of 4 µM (≈ 8.73 µg/mL). For the same compound, the MIC [20] was 4 µM (≈ 8.73 µg/mL), the MIC [21] was 16 µM (≈ 34.9 µg/mL) and the MIC (Staphylococcus aureus) was 16 µM (≈ 34.9 µg/mL).

Source: DBAASP
